Among the data in patent US20060252807A1, “Novel ortho-terphenyl inhibitors of p38 kinase and methods of treating inflammatory disorders” (Kalypsys, Inc., priority 2005, published 2006) are IC50 values, retold here.

In general, IC50 refers to the concentration at which inhibition is half-maximal. Read a low IC50 as greater potency.

The target in the first assay is T1, active p38 alpha enzyme (Upstate Biotechnology) (Homo sapiens, UniProt Q16539).
T1 construct: purchased Upstate Biotechnology
T1 sequence (Q16539 whole entry): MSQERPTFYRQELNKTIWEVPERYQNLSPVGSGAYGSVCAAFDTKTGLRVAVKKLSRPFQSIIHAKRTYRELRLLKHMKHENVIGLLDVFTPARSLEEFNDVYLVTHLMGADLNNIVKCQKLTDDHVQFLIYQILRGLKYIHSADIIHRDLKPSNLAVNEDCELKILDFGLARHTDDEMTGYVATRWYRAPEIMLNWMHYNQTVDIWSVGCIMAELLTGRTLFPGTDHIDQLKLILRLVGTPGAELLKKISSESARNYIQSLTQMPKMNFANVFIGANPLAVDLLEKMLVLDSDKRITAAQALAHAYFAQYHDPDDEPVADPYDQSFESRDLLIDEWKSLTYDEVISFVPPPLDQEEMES
The assay can be described thus: p38α biochemical assay (ATP turnover, luminescent detection, Cambrex PKlight). To be noted: p38α biochemical assay, Table 1 Biological Activity. A digest of the protocol: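 Luminescent ATP-depletion readout measures total ATP turnover by p38α phosphorylating whole MapkapK2 protein. ATP 1.4 uM final; 30C, 2 h. Compounds delivered from DMSO.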
For `CC(=O)Oc1cccc(C(=O)NCc2onc(-c3ccc(F)cc3)c2-c2nc(C(=O)NC(C)C)cs2)c1` [Example 690], the IC50 was greater than 1000 nM.

Take `CC(C)NC(=O)c1csc(-c2oc(CNC(=O)c3ccccc3C(=O)c3ccc(O)cc3)nc2-c2ccc(F)cc2)n1` [Example 322]: the IC50 is no more than 1000 nM.

Turning to `CC(C)Cc1ccc(C(C)C(=O)NCc2onc(-c3ccc(F)cc3)c2-c2nc(C(=O)NC(C)C)cs2)cc1` (stereo not shown) [Example 755], the IC50 was greater than 1000 nM.

`CC(C)NC(=O)c1csc(-c2oc(CN3CCN(C(=O)C(Cl)(Cl)Cl)CC3)nc2-c2ccc(F)cc2)n1` [Example 402] gave an IC50 of no more than 1000 nM.

Turning to `CCOC(=O)CC(=O)NCc1nc(-c2ccc(F)cc2)c(-c2nc(C(=O)NC(C)C)cs2)o1` [Example 120], the IC50 was no more than 1000 nM.

On to `CCC(=O)C(=O)N1CCN(Cc2nc(-c3ccc(F)cc3)c(-c3nc(C(=O)NC(C)C)cs3)o2)CC1` [Example 339], for which the IC50 is greater than 1000 nM.

For the molecule `CC(C)NC(=O)c1csc(-c2oc(CNC(=O)c3cc(F)c(Cl)cc3F)nc2-c2ccc(F)cc2)n1` [Example 259], the IC50 is greater than 1000 nM.

Regarding `CC(=O)Oc1cccc(C(=O)NCc2nc(-c3ccc(F)cc3)c(-c3nc(C(=O)NC(C)C)cs3)o2)c1` [Example 215], the IC50 was greater than 1000 nM.

On to `CCCCCCCC(=O)NCc1nc(-c2ccc(F)cc2)c(-c2nc(C(=O)NC(C)C)cs2)o1` [Example 128], for which the IC50 was no more than 1000 nM.

The molecule `CC(C)NC(=O)c1csc(-c2oc(CN3CCN(C(=O)c4ccc5cccc(O)c5n4)CC3)nc2-c2ccc(F)cc2)n1` [Example 483] had an IC50 of no more than 1000 nM.

In turn, `COc1ccccc1CC(=O)NCc1nc(-c2ccc(F)cc2)c(-c2nc(C(=O)NC(C)C)cs2)o1` [Example 182] gave an IC50 of no more than 1000 nM.

Regarding `CC(C)NC(=O)c1csc(-c2[nH]c(CO)nc2-c2ccc(F)cc2)n1` [Example 84, 2-|5-(4-Fluoro-phenyl)-2-hydroxymethyl-3H-imidazol-4-yl|-thiazole-4-carboxylic acid isopropylamide], the IC50 was no more than 1000 nM.

`CC(C)NC(=O)c1csc(-c2oc(CN3CCN(C(=O)c4cccnc4Cl)CC3)nc2-c2ccc(F)cc2)n1` [Example 390] gave an IC50 greater than 1000 nM.

In turn, `CC(C)NC(=O)c1csc(-c2oc(CNC(=O)C(C)NC(=O)OC(C)(C)C)nc2-c2ccc(F)cc2)n1` (stereo not shown) [Example 247] had an IC50 greater than 1000 nM.

In the case of `CC(C)NC(=O)c1csc(-c2oc(CN3CCN(C(=O)C(Cc4ccccc4)NC(=O)OC(C)(C)C)CC3)nc2-c2ccc(F)cc2)n1` (stereo not shown) [Example 568], the IC50 was greater than 1000 nM.

`CC(C)NC(=O)c1csc(-c2oc(CN3CCN(C(=O)c4cc5cc(Cl)ccc5o4)CC3)nc2-c2ccc(F)cc2)n1` [Example 501] had an IC50 greater than 1000 nM.

Staying with this assay, now noted: p38α kinase; Table 1 Biological Activity.
Consider `O=C(NCc1ccc2c(c1)OCO2)c1csc(-c2c(-c3ccc(F)cc3)n[nH]c2C2CCNCC2)n1` [Example 2119], for which the IC50 is greater than 1000 nM.

`CCCNC(=O)c1csc(-c2c(-c3ccc(F)cc3)n[nH]c2C2CCNCC2)n1` [Example 2034] registered an IC50 greater than 1000 nM.

The molecule `Cc1nc(-c2ccc(F)cc2)c(-c2nc(C(=O)NCCc3ccccc3F)cs2)s1` [Example 1783] showed an IC50 of no more than 1000 nM.

The molecule `COc1cc2c(cc1OC)CN(Cc1nc(-c3ccc(F)cc3)c(-c3nc(C(=O)NC(C)C)cs3)o1)CC2` [Example 1295] registered an IC50 greater than 1000 nM.

`CC(C)NC(=O)c1csc(-c2oc(CN3CCN(C)CC3)nc2-c2ccc(F)cc2)n1` [Example 1199] had a half-inhibitory concentration (IC50) greater than 1000 nM.

Consider `CC(C)NC(=O)c1csc(-c2c(-c3ccc(F)cc3)noc2CNC2CCc3ccccc32)n1` (stereo not shown) [Example 1443], for which the IC50 is greater than 1000 nM.

In the case of `COc1ccc([N+](=O)[O-])c(C(=O)N2CCC(c3[nH]nc(-c4ccc(F)cc4)c3-c3nc(C(=O)NC(C)C)cs3)CC2)c1` [Example 979], the IC50 is greater than 1000 nM.

For `CC(C)NC(=O)c1csc(-c2oc(CN3CCCCC3CCO)nc2-c2ccc(F)cc2)n1` (stereo not shown) [Example 1223], the IC50 is greater than 1000 nM.

As for `CC(C)NC(=O)c1csc(-c2c(-c3ccc(F)cc3)noc2CNCc2ccc(N(C)C)cc2)n1` [Example 1499], the IC50 was greater than 1000 nM.

In turn, `CC(C)NC(=O)c1csc(-c2c(-c3ccc(F)cc3)noc2CNc2cc(C(F)(F)F)ccc2C(F)(F)F)n1` [Example 1697] displayed an IC50 greater than 1000 nM.

Molecule `O=C(NCc1ccncc1)c1csc(-c2c(-c3ccc(F)cc3)n[nH]c2C2CCNCC2)n1` [Example 2064] yielded an IC50 of no more than 1000 nM.

`CC(C)NC(=O)c1csc(-c2oc(CNC3CCCCC3C)nc2-c2ccc(F)cc2)n1` (stereo not shown) [Example 1092]: the IC50 was greater than 1000 nM.

`CC(C)NC(=O)c1csc(-c2oc(CN(CCCO)Cc3ccccn3)nc2-c2ccc(F)cc2)n1` [Example 1245] came in with an IC50 greater than 1000 nM.

Consider `Cc1nc(-c2ccc(F)cc2)c(-c2nc(C(=O)NCC#N)cs2)s1` [Example 1708], for which the IC50 is no more than 1000 nM.

Molecule `CC(C)NC(=O)c1csc(-c2c(-c3ccc(F)cc3)noc2CN(CCc2ccccc2)Cc2ccccc2)n1` [Example 1612] yielded an IC50 greater than 1000 nM.

The molecule `CCN(CC)c1ccc(C(=O)N2CCC(c3[nH]nc(-c4ccc(F)cc4)c3-c3nc(C(=O)NC(C)C)cs3)CC2)cc1` [Example 974] displayed an IC50 greater than 1000 nM.

`Cc1nc(-c2ccc(F)cc2)c(-c2nc(C(=O)NCCCN3CCOCC3)cs2)s1` [Example 1792] registered an IC50 of no more than 1000 nM.

`CC(C)NC(=O)c1csc(-c2c(-c3ccc(F)cc3)noc2CN(CCN(C)C)Cc2ccccc2)n1` [Example 1578] had an IC50 greater than 1000 nM.

In turn, `Cc1nc(-c2ccc(F)cc2)c(-c2nc(C(=O)N3CCN(C(=O)OC(C)(C)C)CC3)cs2)s1` [Example 1909] registered an IC50 greater than 1000 nM.

Molecule `CC(C)NC(=O)c1csc(-c2oc(CNCc3ccc(F)cc3F)nc2-c2ccc(F)cc2)n1` [Example 1134] gave an IC50 greater than 1000 nM.

`O=C(NCC1CCCCC1)c1csc(-c2c(-c3ccc(F)cc3)n[nH]c2C2CCNCC2)n1` [Example 2067] displayed an IC50 greater than 1000 nM.

On to `Cc1ccc(C)c(CNCc2onc(-c3ccc(F)cc3)c2-c2nc(C(=O)NC(C)C)cs2)c1` [Example 1445], for which the IC50 is greater than 1000 nM.

In turn, `Cc1ccc(C)c(CNC(=O)c2csc(-c3sc(C)nc3-c3ccc(F)cc3)n2)c1` [Example 1769] yielded an IC50 greater than 1000 nM.

`Cc1nc(-c2ccc(F)cc2)c(-c2nc(C(=O)NC3CCCCC3C)cs2)s1` (stereo not shown) [Example 1747] showed an IC50 of no more than 1000 nM.

In turn, `CC(=O)Oc1ccc(C(=O)N2CCC(c3[nH]nc(-c4ccc(F)cc4)c3-c3nc(C(=O)NC(C)C)cs3)CC2)cc1` [Example 927] yielded an IC50 greater than 1000 nM.

Molecule `CC(C)NC(=O)c1csc(-c2c(-c3ccc(F)cc3)noc2CNC2CCCc3ccccc32)n1` (stereo not shown) [Example 1671] came in with an IC50 greater than 1000 nM.

`Cc1nc(-c2ccc(F)cc2)c(-c2nc(C(=O)N3CC(C)CC(C)C3)cs2)s1` (stereo not shown) [Example 1856] displayed an IC50 greater than 1000 nM.

The molecule `Cc1ccc(NCc2onc(-c3ccc(F)cc3)c2-c2nc(C(=O)NC(C)C)cs2)cc1F` [Example 1651] showed an IC50 greater than 1000 nM.

Turning to `Cc1ccc(CNC(=O)c2csc(-c3sc(C)nc3-c3ccc(F)cc3)n2)cc1` [Example 1756], the 50% inhibitory concentration (IC50) is no more than 1000 nM.

Molecule `Cc1ccc(CNCc2nc(-c3ccc(F)cc3)c(-c3nc(C(=O)NC(C)C)cs3)o2)cc1` [Example 1101] displayed an IC50 greater than 1000 nM.

`CC(C)NC(=O)c1csc(-c2c(-c3ccc(F)cc3)noc2CNCC(=O)c2ccccc2)n1` [Example 1491] had an IC50 greater than 1000 nM.

In turn, `CC(C)CC(=O)N1CCC(c2[nH]nc(-c3ccc(F)cc3)c2-c2nc(C(=O)NC(C)C)cs2)CC1` [Example 818] had an IC50 greater than 1000 nM.

On to `CCN(C(=O)c1csc(-c2sc(C)nc2-c2ccc(F)cc2)n1)C(C)C` [Example 1843], for which the IC50 is greater than 1000 nM.

For the molecule `COc1ccncc1NC(=O)c1csc(-c2sc(C)nc2-c2ccc(F)cc2)n1` [Example 1975], the IC50 was no more than 1000 nM.

Consider `Cc1nc(-c2ccc(F)cc2)c(-c2nc(C(=O)N(C)C[C@H](O)c3ccc(O)c(O)c3)cs2)s1` [Example 1907], for which the IC50 was greater than 1000 nM.

Consider `CC(C)NC(=O)c1csc(-c2oc(CNc3ccc(OC(F)(F)F)cc3)nc2-c2ccc(F)cc2)n1` [Example 1361], for which the IC50 was greater than 1000 nM.

`COc1cc(CN(C)C(=O)c2csc(-c3sc(C)nc3-c3ccc(F)cc3)n2)cc(OC)c1OC` [Example 1936] returned an IC50 of no more than 1000 nM.

For `CC(CNC(=O)c1csc(-c2c(-c3ccc(F)cc3)n[nH]c2C2CCNCC2)n1)c1ccccc1` (stereo not shown) [Example 2095], the IC50 was greater than 1000 nM.

Molecule `CC(C)NC(=O)c1csc(-c2oc(CN3CCN(c4ccc(O)cc4)CC3)nc2-c2ccc(F)cc2)n1` [Example 1251] returned an IC50 greater than 1000 nM.

As to `O=C(NCCCN1CCCC1=O)c1csc(-c2c(-c3ccc(F)cc3)n[nH]c2C2CCNCC2)n1` [Example 2110], the IC50 is greater than 1000 nM.

For `CC(C)NC(=O)c1csc(-c2c(-c3ccc(F)cc3)noc2CN(Cc2ccccc2)C(C)C)n1` [Example 1558], the IC50 is greater than 1000 nM.

Turning to `CC(C)NC(=O)c1csc(-c2oc(CNc3ccccc3F)nc2-c2ccc(F)cc2)n1` [Example 1315], the IC50 is greater than 1000 nM.

In turn, `Cc1nc(-c2ccc(F)cc2)c(-c2nc(C(=O)N3CCN(Cc4ccccc4)CC3)cs2)s1` [Example 1900] had an IC50 greater than 1000 nM.

`CC(C)NC(=O)c1csc(-c2c(-c3ccc(F)cc3)noc2CN(C)CCC#N)n1` [Example 1516] gave an IC50 greater than 1000 nM.

In the case of `CC(C)NC(=O)c1csc(-c2c(-c3ccc(F)cc3)n[nH]c2C2CCN(C(=O)c3ccc(Cl)cc3Cl)CC2)n1` [Example 966], the IC50 was greater than 1000 nM.

The molecule `Cc1nc(-c2ccc(F)cc2)c(-c2nc(C(=O)N3CCN(CCN4CCOCC4)CC3)cs2)s1` [Example 1929] returned an IC50 greater than 1000 nM.

Turning to `CC(=O)Oc1cccc(C(=O)N2CCC(c3[nH]nc(-c4ccc(F)cc4)c3-c3nc(C(=O)NC(C)C)cs3)CC2)c1` [Example 929], the IC50 was greater than 1000 nM.

For `CC(C)NC(=O)c1csc(-c2c(-c3ccc(F)cc3)n[nH]c2C2CCN(C(=O)Cc3ccc(Br)cc3)CC2)n1` [Example 1008], the IC50 was greater than 1000 nM.
